Measured values published in patent publication US8901138B2, “Sulfoximine substituted quinazolines for pharmaceutical compositions” (Boehringer Ingelheim International GmbH, priority 2012, dated 2014).
pIC50: −log10 of the molar value.

Columns and labels:
MNK2a = target: T1, MNK2a (Homo sapiens, UniProt Q9HBH9); assay: MNK2a in vitro kinase assay (assay 1), ADP-Glo; assay type: biochemical; details: preactivated GST-MNK2a, 20 μM ATP, read-out: MNK2 IC50
T1 construct: made in house
Method in brief: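 Preactivated GST-MNK2a (10 nM) with eIF4E peptide (25 μM) and ATP (20 μM) in HEPES/DTT/MgCl2 buffer, 90 min at room temperature, final DMSO <3%. ADP formed read by ADP-Glo luminescence and normalised to vehicle and 20 μM reference-inhibitor controls; IC50 from dose-response curves.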

MNK1a = MNK1a (Homo sapiens, UniProt Q9BUB5); assay: MNK1 in vitro kinase assay (assay 2), Z'-LYTE; assay type: biochemical; details: compound concentration of 1 μM
MNK1a, sequence (Q9BUB5 1-424 isoform Q9BUB5-2): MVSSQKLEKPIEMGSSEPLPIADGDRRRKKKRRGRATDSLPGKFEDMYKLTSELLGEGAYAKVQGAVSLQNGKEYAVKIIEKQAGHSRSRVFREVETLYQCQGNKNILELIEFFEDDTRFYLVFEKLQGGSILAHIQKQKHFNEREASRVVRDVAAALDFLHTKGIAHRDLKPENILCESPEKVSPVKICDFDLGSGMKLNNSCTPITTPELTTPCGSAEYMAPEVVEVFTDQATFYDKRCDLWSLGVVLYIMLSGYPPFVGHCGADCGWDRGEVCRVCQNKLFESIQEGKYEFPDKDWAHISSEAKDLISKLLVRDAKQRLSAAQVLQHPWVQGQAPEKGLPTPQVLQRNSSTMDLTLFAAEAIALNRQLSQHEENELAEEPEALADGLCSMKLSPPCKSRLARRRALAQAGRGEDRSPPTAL
Source text: B. MNK1 In Vitro Kinase Assay (Assay 2)
MNK1 Data can be obtained from the MNK1 Z′-LYTE® assay. The MNK1 Z′-LYTE® screening protocol and assay conditions are also described on www.invitrogen.com.
The assay is described as follows:
The Z′-LYTE® biochemical assay employs a fluorescence-based, coupled-enzyme format and is based on the differential sensitivity of phosphorylated and non-phosphorylated peptides to proteolytic cleavage. The peptide substrate is labeled with two fluorophores—one at each end—that make up a FRET pair.
In the primary reaction, the kinase transfers the gamma-phosphate of ATP to a single tyrosine, serine or threonine residue in a synthetic FRET-peptide. In the secondary reaction, a site-specific protease recognizes and cleaves non-phosphorylated FRET-peptides. Phosphorylation of FRET-peptides suppresses cleavage by the Development Reagent. Cleavage disrupts FRET between the donor (i.e., coumarin) and acceptor (i.e., fluorescein) fluorophores on the FRET-peptide, whereas uncleaved, phosphorylated FRET-peptides maintain FRET. A ratiometric method, which calculates the ratio (the Emission Ratio) of donor emission to acceptor emission after excitation of the donor fluorophore at 400 nm, is used to quantitate reaction progress, as shown in the equation below. Emission Ratio=Coumarin Emission(445 nm)/Fluorescein Emission(520 nm)
ASSAY SETUP: The inhibition of kinase activity of MNK1a was assessed using pre-activated GST-MNK1a. The 2×MKNK1 (MNK1) mixture is prepared in 50 mM HEPES pH 7.5, 0.01% BRIJ-35, 10 mM MgCl2, 4 mM MnCl2, 1 mM EGTA, 2 mM DTT. The final 10 μL Kinase Reaction consists of 13.5-54 ng MKNK1 (MNK1) and 2 μM Ser/Thr 07 in 50 mM HEPES pH 7.5, 0.01% BRIJ-35, 10 mM MgCl2, 2 mM MnCl2, 1 mM EGTA, 1 mM DTT. After the 1 hour Kinase Reaction incubation, 5 μL of a 1:32768 dilution of Development Reagent A is added.
The Test Compounds are screened in 1% DMSO (final) in the well.
All Peptide/Kinase Mixtures are diluted to a 2× working concentration in the MNK1 Kinase Buffer.
All ATP Solutions are diluted to a 4× working concentration in Kinase Buffer (50 mM HEPES pH 7.5, 0.01% BRIJ-35, 10 mM MgCl2, 1 mM EGTA).
Development Reagent Solution:
The Development Reagent is diluted in Development Buffer
Bar-coded Corning, low volume NBS, 384-well plate (Corning Cat. #3676)
1. 2.5 μL-4× Test Compound
2. 5 μL-2× Peptide/Kinase Mixture
5. 60-minute Kinase Reaction incubation at room temperature
6. 5 μL-Development Reagent Solution
8. 60-minute Development Reaction incubation at room temperature
9. Read on fluorescence plate reader and analyze the data
The following equations are used for each set of data points: […]
Correction for Background Fluorescence: FSample−FITCFl Ctl
Emission Ratio (using values corrected for background fluorescence):Coumarin
Emission (445 nm)/Fluorescein Emission (520 nm)
% Phosphorylation (% Phos): 1−((Emission Ratio×F100%)−C100%)/((C0%−C100%)+[Emission Ratio×(F100%−F0%)])*100 % Inhibition: 1−(% PhosSample/% Phos0% Inhibition Ctl)*100 FI=Fluorescence Intensity C100%=Average Coumarin emission signal of the 100% Phos. Control C0%=Average Coumarin emission signal of the 0% Phos. Control F100%=Average Fluorescein emission signal of the 100% Phos. Control F0%=Average Fluorescein emission signal of the 0% Phos. Control Graphing Software
SelectScreen® Kinase Profiling Service uses XLfit from IDBS. The dose response curve is curve fit to model number 205 (sigmoidal dose-response model).

T1 sequence (Q9HBH9 whole entry): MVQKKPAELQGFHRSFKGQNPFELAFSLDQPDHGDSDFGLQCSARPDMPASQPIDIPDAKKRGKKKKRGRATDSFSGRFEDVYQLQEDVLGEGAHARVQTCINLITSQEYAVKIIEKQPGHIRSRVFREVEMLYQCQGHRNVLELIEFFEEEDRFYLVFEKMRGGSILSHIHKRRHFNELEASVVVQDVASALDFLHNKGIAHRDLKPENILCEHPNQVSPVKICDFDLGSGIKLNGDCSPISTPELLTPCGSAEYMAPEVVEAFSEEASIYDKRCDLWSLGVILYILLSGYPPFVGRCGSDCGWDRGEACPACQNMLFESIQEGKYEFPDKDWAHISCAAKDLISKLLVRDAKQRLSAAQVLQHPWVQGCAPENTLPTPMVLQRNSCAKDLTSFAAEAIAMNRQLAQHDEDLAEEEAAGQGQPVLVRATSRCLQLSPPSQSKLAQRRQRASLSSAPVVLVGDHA

Row | SMILES | pIC50 (MNK2a) | inhibition at 1 µM (MNK1a) [%] | % Inhibition of MNK1 (MNK1a; 1 µM) [%]
1 | CS(C)(=O)=Nc1cc(OC(F)F)c2c(Nc3ccc(F)cc3O[C@H]3CCOC3)ncnc2c1 [Example 1.23] | 8.40 | 94 | –
2 | CCS(C)(=O)=Nc1cc(C)c2c(Nc3ccc(F)cc3O[C@@H]3CO[C@H]4[C@@H]3OC[C@H]4OC)ncnc2c1 (stereo partly shown) [Example 2.55] | 8.70 | 99 | –
3 | Cc1cc(N=S(C)(=O)C(C)(C)C#N)cc2ncnc(Nc3ccc(F)cc3O[C@H]3CCOC3)c12 (stereo partly shown) [Example 2.111] | 8.30 | 89 | –
4 | COc1cc(N=S(C)(C)=O)cc2ncnc(Nc3ccc(F)cc3O[C@H]3CC[C@H](OC)CC3)c12 [Example 5.3] | 8.22 | 90 | –
5 | CCS(=O)(CC)=Nc1cc(C)c2c(Nc3ccc(F)cc3O[C@H]3CCOC3)ncnc2c1 [Example 2.92] | 7.89 | 83 | –
6 | CC(C)(C)OC(=O)N1CCC[C@@H](Oc2cc(F)ccc2Nc2ncnc3cc(N=S(C)(C)=O)cc(F)c23)C1 [Example 2.13] | 7.41 | 73 | –
7 | CS(C)(=O)=Nc1cc(F)c2c(Nc3ccc(F)cc3O[C@@H]3CCCN(CCO)C3)ncnc2c1 [Example 6.1] | 8.10 | 85 | –
8 | Cc1cc(N=S(C)(C)=O)cc2ncnc(Nc3ccc(F)cc3OC3(C(F)(F)F)CCC3)c12 [Example 1.30] | 8.70 | 89 | –
9 | Cc1cc(N=S(C)(C)=O)cc2ncnc(Nc3ccc(F)cc3O[C@H]3CCOC3)c12 [Example 2.47] | 8.70 | 97 | –
10 | CCS(C)(=O)=Nc1cc(C)c2c(Nc3ccc(F)cc3OC3CCOC3)ncnc2c1 (single isomer, unassigned) [Example 7.14] | 8.15 | – | 91
11 | Cc1cc(N=S(C)(=O)CCc2ccccc2)cc2ncnc(Nc3ccc(F)cc3O[C@H]3CC[C@H](O)CC3)c12 (stereo partly shown) [Example 2.54] | 8.30 | 69 | –
12 | Cc1cc(N=S(C)(C)=O)cc2ncnc(Nc3ccc(C(N)=O)cc3OC3CCCC3)c12 [Example 2.24] | 8.40 | 93 | –
13 | COCCS(C)(=O)=Nc1cc(C)c2c(Nc3ccc(F)cc3O[C@@H]3CO[C@H]4[C@@H]3OC[C@H]4O)ncnc2c1 (stereo partly shown) [Example 2.41] | 8.22 | 90 | –
14 | CS(C)(=O)=Nc1cc(OC2CC2)c2c(Nc3ccc(F)cc3O[C@H]3CCOC3)ncnc2c1 [Example 1.25] | 7.32 | 66 | –
15 | Cc1cc(N=S2(=O)CCC2)cc2ncnc(Nc3ccc(F)cc3O[C@H]3CC[C@H](O)CC3)c12 [Example 2.110] | 8.70 | 100 | –
16 | Cc1cc(N=S(C)(C)=O)cc2ncnc(Nc3cccnc3O[C@@H]3CCCN(C(=O)OC(C)(C)C)C3)c12 [Example 2.23] | 7.28 | 66 | –
17 | Cc1cc(N=S2(=O)CCCC2)cc2ncnc(Nc3ccc(F)cc3O[C@@H]3CO[C@@H]4CCC[C@@H]43)c12 [Example 2.123] | 9.00 | 100 | –
18 | CCO[C@@H]1CO[C@H]2[C@@H]1OC[C@H]2Oc1cc(F)ccc1Nc1ncnc2cc(N=S3(=O)CCCC3)cc(C)c12 [Example 2.37] | 9.00 | 95 | –
19 | Cc1cc(N=S(C)(C)=O)cc2ncnc(Nc3cccnc3O[C@H]3CC[C@H](O)CC3)c12 [Example 2.31] | 8.70 | 100 | –
20 | C=Cc1cc(N=S(C)(C)=O)cc2ncnc(Nc3ccc(F)cc3O[C@H]3CCOC3)c12 [Example 7.7] | 8.70 | 97 | –
